How the values were obtained:
[1] = system: Hep3B; test: Hep3B viability assay; type: cell-based; conditions: Homo sapiens, FGF19-overexpressing HCC cell line, 72 h, CCK-8
Procedure: Hep3B (ThermoFisher Scientific, 11965, America) and Huh7 (ThermoFisher Scientific, 11095, America) cells were seeded into 96-well plates at 4000 cells/well and 2000 cells/well, respectively. […] Cell viabilities were measured by a CCK-8 kit (Vazyme, China). The IC50 values were calculated using GraphPad Prism software.

[2] = target: IKK-beta (Homo sapiens, UniProt O14920); test: Kinase selectivity profiling
[3] = target: FMS (CSF1R) (Homo sapiens, UniProt P07333); test: Kinase selectivity profiling
[4] = target: PI3K(p120gamma) (Homo sapiens, UniProt P48736); test: Kinase selectivity profiling
[5] = target: SYK (Homo sapiens, UniProt P43405); test: Kinase selectivity profiling
[6] = target: FGFR3 (Homo sapiens, UniProt P22607); test: Kinase selectivity profiling
[7] = target: GSK3α (Homo sapiens, UniProt P49840); test: Kinase selectivity profiling
[8] = target: GLK (Homo sapiens, UniProt Q8IVH8); test: Kinase selectivity profiling
[9] = target: MET (Homo sapiens, UniProt P08581); test: Kinase selectivity profiling
[10] = target: HGK (Homo sapiens, UniProt O95819); test: Kinase selectivity profiling
[11] = target: SGK3 (Homo sapiens, UniProt Q96BR1); test: Kinase selectivity profiling
SGK3, sequence (Q96BR1 whole entry): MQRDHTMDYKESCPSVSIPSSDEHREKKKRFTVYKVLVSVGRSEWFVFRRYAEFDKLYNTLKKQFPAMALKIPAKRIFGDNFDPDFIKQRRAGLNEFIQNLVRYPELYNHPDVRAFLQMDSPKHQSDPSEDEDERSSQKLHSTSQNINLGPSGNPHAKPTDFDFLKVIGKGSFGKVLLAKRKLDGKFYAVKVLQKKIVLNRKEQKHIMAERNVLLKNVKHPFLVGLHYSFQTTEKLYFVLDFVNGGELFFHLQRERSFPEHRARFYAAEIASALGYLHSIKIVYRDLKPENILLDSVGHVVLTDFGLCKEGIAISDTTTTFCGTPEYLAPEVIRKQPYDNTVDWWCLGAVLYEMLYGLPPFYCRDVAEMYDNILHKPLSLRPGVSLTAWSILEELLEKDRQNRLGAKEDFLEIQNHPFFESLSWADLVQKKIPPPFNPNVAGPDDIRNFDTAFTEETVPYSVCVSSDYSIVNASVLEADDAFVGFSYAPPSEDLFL

[12] = target: PAK3 (Homo sapiens, UniProt O75914); test: Kinase selectivity profiling
PAK3, sequence (O75914 whole entry): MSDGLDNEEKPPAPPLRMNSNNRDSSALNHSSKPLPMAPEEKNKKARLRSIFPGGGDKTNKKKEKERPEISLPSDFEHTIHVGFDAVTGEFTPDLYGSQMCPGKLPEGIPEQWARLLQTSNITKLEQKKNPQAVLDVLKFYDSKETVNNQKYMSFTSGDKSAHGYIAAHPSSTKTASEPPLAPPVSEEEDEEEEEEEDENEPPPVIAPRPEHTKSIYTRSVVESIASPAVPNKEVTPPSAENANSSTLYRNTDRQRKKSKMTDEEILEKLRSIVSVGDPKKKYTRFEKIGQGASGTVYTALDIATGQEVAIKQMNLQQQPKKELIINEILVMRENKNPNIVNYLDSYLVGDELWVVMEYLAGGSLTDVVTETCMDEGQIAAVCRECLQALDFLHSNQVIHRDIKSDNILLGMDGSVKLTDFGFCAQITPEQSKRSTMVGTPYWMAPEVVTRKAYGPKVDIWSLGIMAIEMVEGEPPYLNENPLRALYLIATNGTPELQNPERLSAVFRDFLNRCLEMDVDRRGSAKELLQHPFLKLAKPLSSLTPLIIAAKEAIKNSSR

[13] = target: TYRO3 (Homo sapiens, UniProt Q06418); test: Kinase selectivity profiling
TYRO3, sequence (Q06418 41-890): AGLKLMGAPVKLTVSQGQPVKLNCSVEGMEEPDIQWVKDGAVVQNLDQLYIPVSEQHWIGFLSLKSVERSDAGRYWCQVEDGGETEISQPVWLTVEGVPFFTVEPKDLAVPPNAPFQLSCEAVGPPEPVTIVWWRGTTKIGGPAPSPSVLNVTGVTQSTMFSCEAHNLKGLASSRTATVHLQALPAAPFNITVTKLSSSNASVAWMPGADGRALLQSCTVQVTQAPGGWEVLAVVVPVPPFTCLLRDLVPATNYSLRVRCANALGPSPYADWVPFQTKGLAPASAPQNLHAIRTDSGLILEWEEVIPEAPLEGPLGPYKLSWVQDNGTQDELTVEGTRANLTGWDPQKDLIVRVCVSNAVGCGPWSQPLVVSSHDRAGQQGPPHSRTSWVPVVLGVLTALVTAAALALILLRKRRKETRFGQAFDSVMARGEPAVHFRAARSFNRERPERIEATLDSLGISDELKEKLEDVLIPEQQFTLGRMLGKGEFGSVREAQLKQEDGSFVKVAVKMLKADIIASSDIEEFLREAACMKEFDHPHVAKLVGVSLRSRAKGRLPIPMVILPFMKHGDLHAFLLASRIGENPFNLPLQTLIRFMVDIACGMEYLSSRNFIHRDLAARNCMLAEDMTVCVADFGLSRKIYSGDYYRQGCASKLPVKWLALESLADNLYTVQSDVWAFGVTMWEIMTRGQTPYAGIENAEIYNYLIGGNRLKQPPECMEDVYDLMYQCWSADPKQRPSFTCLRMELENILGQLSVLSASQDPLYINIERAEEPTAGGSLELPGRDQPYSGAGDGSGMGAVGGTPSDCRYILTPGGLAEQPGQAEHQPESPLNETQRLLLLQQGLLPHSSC

[14] = target: INSR (Homo sapiens, UniProt P06213); test: Kinase selectivity profiling
INSR, sequence (P06213 28-1382): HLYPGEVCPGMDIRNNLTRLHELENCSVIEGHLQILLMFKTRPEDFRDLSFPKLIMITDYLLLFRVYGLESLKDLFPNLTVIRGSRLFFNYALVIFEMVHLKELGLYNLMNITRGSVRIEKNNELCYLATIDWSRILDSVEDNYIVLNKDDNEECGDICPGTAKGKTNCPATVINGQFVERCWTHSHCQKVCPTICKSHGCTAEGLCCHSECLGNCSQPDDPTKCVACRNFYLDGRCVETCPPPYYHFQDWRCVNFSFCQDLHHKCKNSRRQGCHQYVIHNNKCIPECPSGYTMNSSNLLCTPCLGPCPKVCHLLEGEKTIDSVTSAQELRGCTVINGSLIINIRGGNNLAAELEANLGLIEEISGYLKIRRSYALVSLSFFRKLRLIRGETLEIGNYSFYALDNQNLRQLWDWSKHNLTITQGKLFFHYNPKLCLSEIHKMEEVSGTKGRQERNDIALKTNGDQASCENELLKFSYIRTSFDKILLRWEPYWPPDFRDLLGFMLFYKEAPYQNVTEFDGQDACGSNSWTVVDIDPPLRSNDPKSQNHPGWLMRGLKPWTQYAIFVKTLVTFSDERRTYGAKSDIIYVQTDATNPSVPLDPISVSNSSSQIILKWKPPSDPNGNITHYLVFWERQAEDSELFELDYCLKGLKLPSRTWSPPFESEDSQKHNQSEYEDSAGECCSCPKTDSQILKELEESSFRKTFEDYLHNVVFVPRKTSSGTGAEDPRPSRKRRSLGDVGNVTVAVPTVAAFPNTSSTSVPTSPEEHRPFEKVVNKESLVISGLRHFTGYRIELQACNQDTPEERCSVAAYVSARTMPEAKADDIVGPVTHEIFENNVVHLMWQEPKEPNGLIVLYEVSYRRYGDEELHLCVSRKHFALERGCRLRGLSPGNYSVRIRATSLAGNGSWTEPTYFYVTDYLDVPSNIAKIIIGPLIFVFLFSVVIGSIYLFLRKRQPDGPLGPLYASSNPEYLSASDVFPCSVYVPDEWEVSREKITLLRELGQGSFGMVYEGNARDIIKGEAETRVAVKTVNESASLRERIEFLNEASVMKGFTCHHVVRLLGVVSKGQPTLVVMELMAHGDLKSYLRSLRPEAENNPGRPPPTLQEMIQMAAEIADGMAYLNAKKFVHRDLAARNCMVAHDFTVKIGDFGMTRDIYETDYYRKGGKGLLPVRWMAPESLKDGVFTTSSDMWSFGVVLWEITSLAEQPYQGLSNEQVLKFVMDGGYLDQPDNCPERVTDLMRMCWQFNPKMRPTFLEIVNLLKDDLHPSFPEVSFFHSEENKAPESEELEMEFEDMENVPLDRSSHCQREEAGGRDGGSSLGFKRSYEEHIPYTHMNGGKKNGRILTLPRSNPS

[15] = target: NPM1-ALK (Homo sapiens, UniProt P06748+Q9UM73); test: Kinase selectivity profiling
[16] = target: PKD2 (Homo sapiens, UniProt Q9BZL6); test: Kinase selectivity profiling
PKD2, sequence (Q9BZL6 whole entry): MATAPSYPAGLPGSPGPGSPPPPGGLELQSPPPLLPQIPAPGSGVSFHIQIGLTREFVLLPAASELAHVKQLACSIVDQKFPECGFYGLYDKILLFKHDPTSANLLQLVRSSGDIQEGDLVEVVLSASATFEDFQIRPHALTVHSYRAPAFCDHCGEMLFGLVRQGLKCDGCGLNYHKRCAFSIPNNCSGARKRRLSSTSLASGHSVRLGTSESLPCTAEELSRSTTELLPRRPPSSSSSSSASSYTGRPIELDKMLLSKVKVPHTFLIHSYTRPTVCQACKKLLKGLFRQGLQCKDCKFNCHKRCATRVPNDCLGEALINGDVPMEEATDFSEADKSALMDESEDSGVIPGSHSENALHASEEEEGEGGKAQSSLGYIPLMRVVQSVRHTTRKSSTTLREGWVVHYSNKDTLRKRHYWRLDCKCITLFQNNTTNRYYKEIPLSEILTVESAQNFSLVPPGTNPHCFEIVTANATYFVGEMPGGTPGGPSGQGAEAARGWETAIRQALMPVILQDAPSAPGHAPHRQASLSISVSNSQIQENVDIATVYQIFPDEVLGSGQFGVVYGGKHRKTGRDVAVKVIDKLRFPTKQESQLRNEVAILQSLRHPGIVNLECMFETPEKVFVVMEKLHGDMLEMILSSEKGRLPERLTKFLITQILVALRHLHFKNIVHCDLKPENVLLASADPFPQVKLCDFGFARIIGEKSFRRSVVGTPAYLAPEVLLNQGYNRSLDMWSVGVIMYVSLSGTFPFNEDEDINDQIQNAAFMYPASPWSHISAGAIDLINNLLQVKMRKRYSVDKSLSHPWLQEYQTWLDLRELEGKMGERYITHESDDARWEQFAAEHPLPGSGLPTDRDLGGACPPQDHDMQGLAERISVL

[17] = target: FRK (Homo sapiens, UniProt P42685); test: Kinase selectivity profiling
[18] = target: EPHB3 (Homo sapiens, UniProt P54753); test: Kinase selectivity profiling
EPHB3, sequence (P54753 34-998): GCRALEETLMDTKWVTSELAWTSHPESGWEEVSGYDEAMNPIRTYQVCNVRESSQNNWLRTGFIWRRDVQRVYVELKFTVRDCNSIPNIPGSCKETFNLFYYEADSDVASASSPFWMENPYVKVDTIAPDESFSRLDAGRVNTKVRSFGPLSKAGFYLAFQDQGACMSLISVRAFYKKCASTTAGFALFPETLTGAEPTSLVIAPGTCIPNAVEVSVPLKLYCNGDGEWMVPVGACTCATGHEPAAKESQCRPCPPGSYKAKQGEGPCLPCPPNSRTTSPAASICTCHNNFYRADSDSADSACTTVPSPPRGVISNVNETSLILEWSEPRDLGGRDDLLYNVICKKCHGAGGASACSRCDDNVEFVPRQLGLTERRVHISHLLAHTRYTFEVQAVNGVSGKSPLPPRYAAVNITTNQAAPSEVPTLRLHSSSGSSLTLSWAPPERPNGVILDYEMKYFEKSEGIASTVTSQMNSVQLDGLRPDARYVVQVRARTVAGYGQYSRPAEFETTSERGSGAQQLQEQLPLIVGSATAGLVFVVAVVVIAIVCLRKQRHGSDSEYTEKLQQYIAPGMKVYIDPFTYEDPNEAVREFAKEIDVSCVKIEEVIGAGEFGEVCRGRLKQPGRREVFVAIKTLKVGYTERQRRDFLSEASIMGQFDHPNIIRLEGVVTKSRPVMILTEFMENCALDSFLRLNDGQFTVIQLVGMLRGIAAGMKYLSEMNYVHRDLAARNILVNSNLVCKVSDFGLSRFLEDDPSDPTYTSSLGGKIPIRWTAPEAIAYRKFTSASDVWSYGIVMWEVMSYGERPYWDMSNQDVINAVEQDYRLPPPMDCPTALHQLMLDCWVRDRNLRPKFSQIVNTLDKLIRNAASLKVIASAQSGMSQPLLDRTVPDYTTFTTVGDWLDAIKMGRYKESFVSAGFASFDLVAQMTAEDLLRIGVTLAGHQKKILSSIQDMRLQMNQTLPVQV

[19] = target: MAP3K3 (Homo sapiens, UniProt Q99759); test: Kinase selectivity profiling
[20] = target: CDK5/p25NCK (Homo sapiens, UniProt Q00535); test: Kinase selectivity profiling

## C=CC(=O)Nc1ccccc1Nc1ncc2c(n1)N(CCCN1CCN(C(=O)C=C)CC1)C(=O)N(c1cc(OC)cc(OC)c1)C2 [CXF-009]
[1]
  IC50: 895 nM
[2]
  inhibition at 1 µM: 19%
[3]
  inhibition at 1 µM: 15.4%
[4]
  inhibition at 1 µM: 15%
[5]
  inhibition at 1 µM: 13.6%
[6]
  inhibition at 1 µM: 11.1%
[7]
  inhibition at 1 µM: 5.79%
[8]
  inhibition at 1 µM: 2.68%
[9]
  inhibition at 1 µM: 2.65%
[10]
  inhibition at 1 µM: 2.58%
[11]
  inhibition at 1 µM: 1.58%
[12]
  inhibition at 1 µM: 0.97%
[13]
  inhibition at 1 µM: 0.8%
[14]
  inhibition at 1 µM: 0.8%
[15]
  inhibition at 1 µM: 0.37%
[16]
  inhibition at 1 µM: 0.08%
[17]
  inhibition at 1 µM: -0.22%
[18]
  inhibition at 1 µM: -0.82%
[19]
  inhibition at 1 µM: -1.62%
[20]
  inhibition at 1 µM: -5.5%

Reference: article PMC9814781, “Structure-based design of a dual-warhead covalent inhibitor of FGFR4” (Communications Chemistry, 2022)
